Results: patent US12275731B2, “Azaindole inhibitors of wild-type and mutant forms of LRRK2” (DANA-FARBER CANCER INSTITUTE, INC., priority 2018, dated 2025)

How the values were obtained:
Test in all cases: KinomeScan profiling
Type in all cases: binding
CASK = target: T1, CASK (Homo sapiens, UniProt O14936); conditions: read-out: % control
T1 sequence (O14936 1-926): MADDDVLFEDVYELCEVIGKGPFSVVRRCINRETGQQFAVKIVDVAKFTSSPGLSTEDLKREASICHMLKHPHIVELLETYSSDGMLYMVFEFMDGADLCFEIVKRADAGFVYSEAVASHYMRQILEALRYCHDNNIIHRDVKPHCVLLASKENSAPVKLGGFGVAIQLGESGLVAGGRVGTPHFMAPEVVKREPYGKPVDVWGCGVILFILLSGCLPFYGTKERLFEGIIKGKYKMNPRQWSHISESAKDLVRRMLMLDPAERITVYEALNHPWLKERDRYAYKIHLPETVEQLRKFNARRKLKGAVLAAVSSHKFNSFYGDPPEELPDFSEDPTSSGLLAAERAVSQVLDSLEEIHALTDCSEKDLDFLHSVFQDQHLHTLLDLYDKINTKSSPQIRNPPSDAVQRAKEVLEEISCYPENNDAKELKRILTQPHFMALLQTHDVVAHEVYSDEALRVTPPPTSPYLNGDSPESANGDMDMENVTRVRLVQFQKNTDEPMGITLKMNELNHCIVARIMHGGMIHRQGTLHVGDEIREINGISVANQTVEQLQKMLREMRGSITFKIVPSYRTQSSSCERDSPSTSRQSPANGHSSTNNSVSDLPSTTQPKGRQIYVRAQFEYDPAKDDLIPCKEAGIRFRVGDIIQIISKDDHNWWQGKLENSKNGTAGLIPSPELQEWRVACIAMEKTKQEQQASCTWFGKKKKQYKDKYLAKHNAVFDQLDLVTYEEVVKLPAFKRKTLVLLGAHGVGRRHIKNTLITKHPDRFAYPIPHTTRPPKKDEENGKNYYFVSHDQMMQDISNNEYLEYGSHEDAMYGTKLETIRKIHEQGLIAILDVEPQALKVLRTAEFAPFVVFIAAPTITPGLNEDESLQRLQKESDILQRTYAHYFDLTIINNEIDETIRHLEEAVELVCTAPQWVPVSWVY
How it was run: (§1)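 Compounds were screened at 1 μM in DMSO across a 468-kinase KinomeScan panel. Binding was expressed as % control, scaled between a positive control (0%) and DMSO (100%) using luminescence signal. A value under 35% counted as active.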

CDC2L2 = target: T2, CDC2L2 (Homo sapiens, UniProt Q9UQ88); conditions: CDC2L2, 1 μM; read-out: % control
T2 sequence (Q9UQ88 1-783): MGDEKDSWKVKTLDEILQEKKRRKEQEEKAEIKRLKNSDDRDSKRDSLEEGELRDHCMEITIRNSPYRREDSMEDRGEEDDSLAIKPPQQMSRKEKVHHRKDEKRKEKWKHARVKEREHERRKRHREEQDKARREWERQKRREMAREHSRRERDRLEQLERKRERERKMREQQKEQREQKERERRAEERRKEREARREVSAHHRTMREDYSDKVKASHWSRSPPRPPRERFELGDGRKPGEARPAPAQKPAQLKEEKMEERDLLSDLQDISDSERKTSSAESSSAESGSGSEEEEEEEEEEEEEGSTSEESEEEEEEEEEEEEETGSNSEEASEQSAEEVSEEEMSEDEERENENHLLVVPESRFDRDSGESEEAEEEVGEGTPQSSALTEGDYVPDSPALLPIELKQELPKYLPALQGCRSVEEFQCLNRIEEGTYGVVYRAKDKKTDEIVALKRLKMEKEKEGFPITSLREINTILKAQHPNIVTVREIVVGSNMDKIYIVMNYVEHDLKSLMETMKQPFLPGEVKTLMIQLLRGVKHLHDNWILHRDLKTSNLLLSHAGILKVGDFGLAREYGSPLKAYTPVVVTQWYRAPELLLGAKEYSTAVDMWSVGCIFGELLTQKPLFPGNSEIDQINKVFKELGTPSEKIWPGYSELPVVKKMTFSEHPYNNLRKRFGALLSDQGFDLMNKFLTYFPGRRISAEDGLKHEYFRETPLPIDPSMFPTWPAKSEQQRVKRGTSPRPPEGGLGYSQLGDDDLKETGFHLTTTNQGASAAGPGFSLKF
How it was run: as §1

NDR2 = NDR2 (Homo sapiens, UniProt Q9Y2H1); conditions: NDR2, 1 μM; read-out: % control
How it was run: as §1

PKAC-alpha = target: T3, PKAC-alpha (Homo sapiens, UniProt P17612); conditions: read-out: % control
T3 construct: purchased KinomeScan® (panel service)
How it was run: as §1

Sequence of NDR2 (Q9Y2H1 whole entry): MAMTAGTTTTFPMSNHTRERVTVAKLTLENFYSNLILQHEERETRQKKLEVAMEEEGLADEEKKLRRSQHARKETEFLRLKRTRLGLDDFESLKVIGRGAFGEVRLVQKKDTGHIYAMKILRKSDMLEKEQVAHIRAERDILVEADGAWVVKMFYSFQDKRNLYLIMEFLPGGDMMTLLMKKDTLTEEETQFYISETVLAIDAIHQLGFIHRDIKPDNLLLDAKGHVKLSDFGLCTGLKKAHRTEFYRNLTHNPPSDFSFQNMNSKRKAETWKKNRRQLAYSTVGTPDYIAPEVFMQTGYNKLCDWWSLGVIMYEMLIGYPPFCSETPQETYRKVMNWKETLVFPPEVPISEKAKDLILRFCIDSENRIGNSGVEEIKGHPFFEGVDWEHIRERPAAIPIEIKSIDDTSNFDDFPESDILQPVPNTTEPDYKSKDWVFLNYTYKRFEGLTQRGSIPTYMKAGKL

| Structure (SMILES) | remaining binding at 1 µM (CASK) [%] | remaining binding at 1 µM (CDC2L2) [%] | remaining binding at 1 µM (NDR2) [%] | remaining binding at 1 µM (PKAC-alpha) [%] |
| --- | --- | --- | --- | --- |
| CNc1c(-c2cnn([C@H]3CCN(C(C)=O)C[C@@H]3F)c2)cnc2[nH]cc(Cl)c12 [Compound 77, 1-((3S,4S)-4-(4-(3-chloro-4-(methylamino)-1H-pyrrolo[2,3-b]pyridin-5-yl)-1H-pyrazol-1-yl)-3-fluoropiperidin-1-yl)ethan-1-one] | 95 | 91 | 21 | 100 |
| CNc1c(-c2ccc(C(=O)N3CCC(N4CCOCC4)CC3)cc2)cnc2[nH]cc(Cl)c12 [Compound 96, (4-(3-chloro-4-(methylamino)-1H-pyrrolo[2,3-b]pyridin-5-yl)phenyl)(4-morpholinopiperidin-1-yl)methanone] | 94 | 100 | 19 | 100 |
| O=C(c1ccc(-c2cnc3[nH]cc(Cl)c3c2NC2CCCC2)cc1)N1CCC(N2CCOCC2)CC1 [Compound 101, (4-(3-chloro-4-(cyclopentylamino)-1H-pyrrolo[2,3-b]pyridin-5-yl)phenyl)(4-morpholinopiperidin-1-yl)methanone] | 100 | 92 | 63 | 100 |
